US11572362B2, “Pyrrolo[1,2-b]pyridazine derivatives” (Gilead Sciences, Inc., priority 2018, dated 2023)

Columns and labels:
TNFα = assay: IRAK4 Monocyte TNFα Cell Based Assay; details: Monocyte; cryopreserved human monocytes, 50 pg/ml LPS, compound 1 hour pre-treatment, 4 hours stimulation, TNFα by TR-FRET
Method: IRAK4 Monocyte TNFα Cell Based Assay Procedure:
The cell suspension was then plated at a density of 5,000 cells/well onto black 384 well Greiner clear bottom plates. Plates were pre-spotted with test compounds and serially diluted in DMSO where 40 nL/well were delivered using the Echo 550 acoustic liquid dispenser (Labcyte®) for a final DMSO concentration of 0.1%. Plated cells were treated with compound for 1 hour at 37° C. Cells were then stimulated with 50 pg/ml of LPS (Sigma) excluding outside columns of plate used for unstimulated cell control wells. Cells were incubated for an additional 4 hours at 37° C. Cells were then spun out of the media and 5 μl of sample were taken and analyzed for total TNFα content using the TR-FRET Human TNFα detection system (CisBio). This system utilizes two labeled antibodies (cryptate and XL665) that bind to two different epitopes of the TNFα molecule and produce FRET signal proportional to the concentration of TNFα in the sample. Detection antibodies are mixed 50:50 and 5 μL were dispensed into each well. Plates were covered with clear seals and incubated at room temp overnight. The following morning plates were read using an Envision 2103 Multilabeled reader (PerkinElmer) with excitation/emission/FRET emission at 340 nm/615 nm/665 nm, respectively. Fluorescence intensities at 615 nm and 665 nm emission wavelengths were expressed as a ratio (665 nm/615 nm). Percent of control was calculated as follows: % Control=100×(RatioSample−Ratio0% Stimulation)/(Ratio100% Stimulation−Ratio0% Stimulation)
where unstimulated cells (0% stimulation) were the negative control and stimulated cells (100% stimulation) were used as the positive control.

IRAK4 = IRAK4 (Homo sapiens (Human), UniProt Q9NWZ3); assay: IRAK4 Biochemical Assay (TR-FRET/HTRF); details: IRAK4 enzyme 0.75 nM, 500 μM ATP, 2 μM STK1 peptide, 120 min
Method: IRAK4 Biochemical Assay Procedure:
IRAK4 enzyme (Carna Biosciences, Chuo-ku, Kobe, Japan) activity was measured by detecting phosphorylated peptide substrate formation using an antibody against the phosphorylated peptide substrate. This is a time-resolved fluorescence resonance energy transfer (TR-FRET) immunoassay, based on the STK1 KinEASE Assay (Cisbio, Bedford, Mass.). The assay was designed as a simple two-step, endpoint assay (a 5 μl enzyme reaction followed by 5 μl stop and detect Solution) performed in ProxiPlate-384 Plus plates (Perkin Elmer, Waltham, Mass.). Staurosporine, a non-selective kinase inhibitor was used as a positive control. Compounds diluted in DMSO were spotted into 384 well plates using a Labcyte® Echo 550 Liquid Handling System prior to addition of IRAK4 enzyme and peptide substrate. Reaction solutions were delivered using a Multi-Flo (Bio-Tek Instruments). The enzyme and peptide solution was incubated with compound for 15 minutes at room temp before the reaction was initiated by the addition of ATP. The standard 5 μl reaction mixture contained 500 μM ATP, 2 μM peptide (STK1 Peptide), 0.75 nM of IRAK4 in reaction buffer (50 mM HEPES, pH 7.0, 0.02% NaN3, 0.01% BSA, 0.1 mM Orthovanadate, 5 mM MgCl2, 0.025% NP-40, 1 mM DTT). After 120 min of incubation at room temperature, 5 μl of Stop and Detect Solution (1:100 Cryptate labeled anti-phosphorylated peptide antibody solution and 125 nM Tracer in a 50 mM HEPES pH 7.0 detection buffer containing sufficient EDTA) was added. The plate was then further incubated for 60 minutes at room temperature and read on Envision 2103 Multilabeled reader (PerkinElmer) with excitation/emission/FRET emission at 340 nm/615 nm/665 nm, respectively. Fluorescence intensities at 615 nm and 665 nm emission wavelengths were expressed as a ratio (665 nm/615 nm). Percentage of inhibition was calculated as below: % Inhibition=100×(RatioSample−Ratio0% Inhibition)/(Ratio100% Inhibition−Ratio0% Inhibition)
The 0% inhibition value comes from control wells lacking inhibitor. The 100% inhibition value comes from control wells containing a saturating amount of known inhibitor staurosporine.

Sequence of IRAK4 (Q9NWZ3 whole entry): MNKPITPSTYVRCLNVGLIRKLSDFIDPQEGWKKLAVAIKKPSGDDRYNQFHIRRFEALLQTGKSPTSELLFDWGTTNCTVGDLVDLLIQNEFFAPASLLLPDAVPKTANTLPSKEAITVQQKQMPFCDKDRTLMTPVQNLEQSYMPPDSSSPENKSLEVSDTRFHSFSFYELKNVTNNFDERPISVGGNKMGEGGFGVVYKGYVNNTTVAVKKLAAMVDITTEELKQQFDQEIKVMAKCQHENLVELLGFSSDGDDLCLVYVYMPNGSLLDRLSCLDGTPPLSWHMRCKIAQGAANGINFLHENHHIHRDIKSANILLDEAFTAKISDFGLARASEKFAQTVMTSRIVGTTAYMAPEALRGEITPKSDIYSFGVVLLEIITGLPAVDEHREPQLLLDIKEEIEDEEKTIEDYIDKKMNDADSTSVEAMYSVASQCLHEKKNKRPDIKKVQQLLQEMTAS

Row | EC50 (TNFα) | IC50 (IRAK4) | Compound
1 | 63 nM | 1 nM | CC(C)(O)[C@H](F)CNC(=O)c1cnc(-c2ccc3cc(C#N)cnn23)cc1N[C@H]1CC[C@H](n2cc(C3CC3)nn2)CC1 [Compound 32, 6-(3-cyanopyrrolo[1,2-b]pyridazin-7-yl)-4-(((1r,4R)-4-(4-cyclopropyl-1H-1,2,3-triazol-1-yl)cyclohexyl)amino)-N-((R)-2-fluoro-3-hydroxy-3-methylbutyl)nicotinamide]
2 | 200 nM | 1 nM | CC(C)(O)[C@H](F)CNC(=O)c1cnc(-c2ccc3cc(C#N)cnn23)cc1N[C@H]1CC[C@H](n2cc(C3COC3)nn2)CC1 [Compound 33, 6-(3-cyanopyrrolo[1,2-b]pyridazin-7-yl)-N-((R)-2-fluoro-3-hydroxy-3-methylbutyl)-4-(((1r,4R)-4-(4-(oxetan-3-yl)-1H-1,2,3-triazol-1-yl)cyclohexyl)amino)nicotinamide]
3 | 43 nM | < 1 nM | CC(C)(O)[C@H](F)CNC(=O)c1cnc(-c2ccc3cc(C#N)cnn23)cc1N[C@H]1CC[C@H](n2cc(C(N)=O)nn2)CC1 [Compound 34, 4-(((1r,4R)-4-(4-carbamoyl-1H-1,2,3-triazol-1-yl)cyclohexyl)amino)-6-(3-cyanopyrrolo[1,2-b]pyridazin-7-yl)-N-((R)-2-fluoro-3-hydroxy-3-methylbutyl)nicotinamide]
4 | 16 nM | < 1 nM | CC(C)(O)[C@H](F)CNC(=O)c1cnc(-c2ccc3cc(C#N)cnn23)cc1N[C@H]1CC[C@H](n2cc(C(F)F)nn2)CC1 [Compound 35, 6-(3-cyanopyrrolo[1,2-b]pyridazin-7-yl)-4-(((1r,4R)-4-(4-(difluoromethyl)-1H-1,2,3-triazol-1-yl)cyclohexyl)amino)-N-((R)-2-fluoro-3-hydroxy-3-methylbutyl)nicotinamide]
5 | 14 nM | < 1 nM | CC(C)(O)[C@H](F)CNC(=O)c1cnc(-c2ccc3cc(C#N)cnn23)cc1N[C@H]1CC[C@H](n2cnc(C(F)F)n2)CC1 [Compound 36, 6-(3-cyanopyrrolo[1,2-b]pyridazin-7-yl)-4-(((1r,4R)-4-(3-(difluoromethyl)-1H-1,2,4-triazol-1-yl)cyclohexyl)amino)-N-((R)-2-fluoro-3-hydroxy-3-methylbutyl)nicotinamide]
6 | 40 nM | 1 nM | CC(C)(O)[C@H](F)CNC(=O)c1cnc(-c2ccc3cc(C#N)cnn23)cc1N[C@H]1CC[C@H](n2cnnc2C(F)F)CC1 [Compound 37, 6-(3-cyanopyrrolo[1,2-b]pyridazin-7-yl)-4-(((1r,4R)-4-(3-(difluoromethyl)-4H-1,2,4-triazol-4-yl)cyclohexyl)amino)-N-((R)-2-fluoro-3-hydroxy-3-methylbutyl)nicotinamide]
7 | 24 nM | < 1 nM | CC(C)(O)[C@H](F)CNC(=O)c1cnc(-c2ccc3cc(C#N)cnn23)cc1N[C@H]1CC[C@H](n2cnnn2)CC1 [Compound 38, 4-(((1r,4R)-4-(1H-tetrazol-1-yl)cyclohexyl)amino)-6-(3-cyanopyrrolo[1,2-b]pyridazin-7-yl)-N-((R)-2-fluoro-3-hydroxy-3-methylbutyl)nicotinamide]
8 | 33 nM | < 1 nM | Cc1nnc([C@H]2CC[C@H](Nc3cc(-c4ccc5cc(C#N)cnn45)ncc3C(=O)NC[C@@H](F)C(C)(C)O)CC2)o1 [Compound 39, 6-(3-cyanopyrrolo[1,2-b]pyridazin-7-yl)-N-((R)-2-fluoro-3-hydroxy-3-methylbutyl)-4-(((1r,4R)-4-(5-methyl-1,3,4-oxadiazol-2-yl)cyclohexyl)amino)nicotinamide]
9 | 66 nM | 1 nM | COCc1nnc([C@H]2CC[C@H](Nc3cc(-c4ccc5cc(C#N)cnn45)ncc3C(=O)NC[C@@H](F)C(C)(C)O)CC2)o1 [Compound 40, 6-(3-cyanopyrrolo[1,2-b]pyridazin-7-yl)-N-((R)-2-fluoro-3-hydroxy-3-methylbutyl)-4-(((1r,4R)-4-(5-(methoxymethyl)-1,3,4-oxadiazol-2-yl)cyclohexyl)amino)nicotinamide]
10 | 38 nM | < 1 nM | CC(C)(O)[C@H](F)CNC(=O)c1cnc(-c2ccc3cc(C#N)cnn23)cc1N[C@H]1CC[C@H](c2nnc(C3CC3)o2)CC1 [Compound 41, 6-(3-cyanopyrrolo[1,2-b]pyridazin-7-yl)-4-(((1r,4R)-4-(5-cyclopropyl-1,3,4-oxadiazol-2-yl)cyclohexyl)amino)-N-((R)-2-fluoro-3-hydroxy-3-methylbutyl)nicotinamide]
11 | 24 nM | < 1 nM | CC(C)(O)[C@H](F)CNC(=O)c1cnc(-c2ccc3cc(C#N)cnn23)cc1N[C@H]1CC[C@H](c2nnc(C(F)F)o2)CC1 [Compound 42, 6-(3-cyanopyrrolo[1,2-b]pyridazin-7-yl)-4-(((1r,4R)-4-(5-(difluoromethyl)-1,3,4-oxadiazol-2-yl)cyclohexyl)amino)-N-((R)-2-fluoro-3-hydroxy-3-methylbutyl)nicotinamide]
12 | 39 nM | < 1 nM | CC(C)(O)[C@H](F)CNC(=O)c1cnc(-c2ccc3cc(C#N)cnn23)cc1NC1CCC(F)(c2nnc(C(F)F)o2)CC1 (stereo partly drawn) [Compound 43, (R)-6-(3-cyanopyrrolo[1,2-b]pyridazin-7-yl)-4-((4-(5-(difluoromethyl)-1,3,4-oxadiazol-2-yl)-4-fluorocyclohexyl)amino)-N-(2-fluoro-3-hydroxy-3-methylbutyl)nicotinamide]
13 | 28 nM | < 1 nM | Cc1nc([C@H]2CC[C@H](Nc3cc(-c4ccc5cc(C#N)cnn45)ncc3C(=O)NC[C@@H](F)C(C)(C)O)CC2)no1 [Compound 44, 6-(3-cyanopyrrolo[1,2-b]pyridazin-7-yl)-N-((R)-2-fluoro-3-hydroxy-3-methylbutyl)-4-(((1r,4R)-4-(5-methyl-1,2,4-oxadiazol-3-yl)cyclohexyl)amino)nicotinamide]
14 | 85 nM | 2 nM | Cc1noc([C@H]2CC[C@H](Nc3cc(-c4ccc5cc(C#N)cnn45)ncc3C(=O)NC[C@@H](F)C(C)(C)O)CC2)n1 [Compound 45, 6-(3-cyanopyrrolo[1,2-b]pyridazin-7-yl)-N-((R)-2-fluoro-3-hydroxy-3-methylbutyl)-4-(((1r,4R)-4-(3-methyl-1,2,4-oxadiazol-5-yl)cyclohexyl)amino)nicotinamide]
15 | 124 nM | 2 nM | CC(C)(O)[C@H](F)CNC(=O)c1cnc(-c2ccc3cc(C#N)cnn23)cc1N[C@H]1CC[C@H](c2nc(C(F)F)co2)CC1 [Compound 46, 6-(3-cyanopyrrolo[1,2-b]pyridazin-7-yl)-4-(((1r,4R)-4-(4-(difluoromethyl)oxazol-2-yl)cyclohexyl)amino)-N-((R)-2-fluoro-3-hydroxy-3-methylbutyl)nicotinamide]
16 | 89 nM | 2 nM | CC(C)(O)[C@H](F)CNC(=O)c1cnc(-c2ccc3cc(C#N)cnn23)cc1N[C@H]1CC[C@H](c2cc(C(F)F)no2)CC1 [Compound 47, 6-(3-cyanopyrrolo[1,2-b]pyridazin-7-yl)-4-(((1r,4R)-4-(3-(difluoromethyl)isoxazol-5-yl)cyclohexyl)amino)-N-((R)-2-fluoro-3-hydroxy-3-methylbutyl)nicotinamide]
17 | 1050 nM | 10 nM | Cc1ncoc1[C@@H]1CCC[C@@H](Nc2cc(-c3ccc4cc(C#N)cnn34)ncc2C(=O)NC[C@@H](F)C(C)(C)O)C1 [Compound 48, 6-(3-cyanopyrrolo[1,2-b]pyridazin-7-yl)-N-((R)-2-fluoro-3-hydroxy-3-methylbutyl)-4-(((1R,3R)-3-(4-methyloxazol-5-yl)cyclohexyl)amino)nicotinamide]
